We go through seven compounds from ChEMBL document CHEMBL4387718, “Design, synthesis of orally bioavailable novel anaplastic lymphoma kinase (ALK) inhibitor diphenylaminopyrimidine analogs and efficacy study on NCI-H2228 xenografts mice model” (Bioorg Med Chem Lett, 2019).

Usually IC50 stands for the concentration that inhibits the measured activity by half. A high value points to a need for much substance. The bioavailability is the share of a dose that reaches the circulation, judged against a reference dose that is usually intravenous. Low readings indicate little systemic uptake, high ones much systemic uptake. The term Tmax denotes the time from dosing to the highest level. The Cmax is the highest concentration seen after dosing.

Data set [1] concerns NCI-H2228. Description: Growth inhibition of human NCI-H2228 cells. It counts as functional, cell-based.
The subject of data set [2] is NCI-H3122. The data set can be described thus: Growth inhibition of human NCI-H3122 cells. The data set is classed as functional, cell-based.
For data set [3], the target named is ALK tyrosine kinase receptor (Homo sapiens, UniProt Q9UM73). The data set can be described thus: Inhibition of wild-type ALK (unknown origin).
ALK tyrosine kinase receptor (Homo sapiens, UniProt Q9UM73), sequence (Q9UM73 whole entry): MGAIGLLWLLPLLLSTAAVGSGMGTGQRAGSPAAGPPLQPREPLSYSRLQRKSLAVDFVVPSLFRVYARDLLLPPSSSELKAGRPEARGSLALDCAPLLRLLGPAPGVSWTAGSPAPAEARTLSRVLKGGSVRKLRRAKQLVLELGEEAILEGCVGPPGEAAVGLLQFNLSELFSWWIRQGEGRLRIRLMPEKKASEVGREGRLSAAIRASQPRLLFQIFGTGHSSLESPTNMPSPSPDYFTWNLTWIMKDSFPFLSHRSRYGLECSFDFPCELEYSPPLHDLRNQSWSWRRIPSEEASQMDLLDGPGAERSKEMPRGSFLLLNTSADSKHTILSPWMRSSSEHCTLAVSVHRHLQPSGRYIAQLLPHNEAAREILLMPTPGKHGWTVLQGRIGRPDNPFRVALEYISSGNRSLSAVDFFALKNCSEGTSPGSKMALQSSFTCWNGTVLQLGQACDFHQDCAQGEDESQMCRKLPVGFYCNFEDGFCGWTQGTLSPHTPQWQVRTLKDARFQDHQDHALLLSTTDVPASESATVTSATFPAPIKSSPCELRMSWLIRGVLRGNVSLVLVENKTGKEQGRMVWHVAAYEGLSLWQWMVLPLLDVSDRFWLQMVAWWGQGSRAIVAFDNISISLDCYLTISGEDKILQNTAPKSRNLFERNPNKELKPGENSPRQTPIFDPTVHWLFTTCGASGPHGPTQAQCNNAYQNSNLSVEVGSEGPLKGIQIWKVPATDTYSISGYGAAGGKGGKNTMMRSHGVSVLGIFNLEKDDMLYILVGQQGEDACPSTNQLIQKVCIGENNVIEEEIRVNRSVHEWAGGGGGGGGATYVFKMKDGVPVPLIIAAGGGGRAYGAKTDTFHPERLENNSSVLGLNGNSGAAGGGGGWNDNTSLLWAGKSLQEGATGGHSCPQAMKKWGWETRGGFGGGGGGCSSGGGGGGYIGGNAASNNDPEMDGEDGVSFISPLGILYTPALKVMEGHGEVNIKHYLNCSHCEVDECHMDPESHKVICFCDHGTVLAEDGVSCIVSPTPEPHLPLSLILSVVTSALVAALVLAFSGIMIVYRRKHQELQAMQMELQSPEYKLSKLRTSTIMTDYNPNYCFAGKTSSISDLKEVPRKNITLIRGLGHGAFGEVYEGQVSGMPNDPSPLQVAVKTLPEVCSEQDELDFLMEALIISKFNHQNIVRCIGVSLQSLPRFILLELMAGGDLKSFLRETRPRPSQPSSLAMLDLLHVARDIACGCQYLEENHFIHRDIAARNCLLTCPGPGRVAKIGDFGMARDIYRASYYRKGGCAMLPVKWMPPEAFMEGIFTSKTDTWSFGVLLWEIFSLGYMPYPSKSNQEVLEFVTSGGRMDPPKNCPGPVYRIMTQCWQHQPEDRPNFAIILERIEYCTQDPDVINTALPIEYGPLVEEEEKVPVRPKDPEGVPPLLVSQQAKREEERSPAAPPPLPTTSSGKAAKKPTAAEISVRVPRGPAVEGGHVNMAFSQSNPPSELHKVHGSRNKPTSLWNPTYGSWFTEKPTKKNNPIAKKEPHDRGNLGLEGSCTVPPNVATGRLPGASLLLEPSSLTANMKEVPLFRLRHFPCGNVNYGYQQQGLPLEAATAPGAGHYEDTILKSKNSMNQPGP
For data set [4], the target named is ALK tyrosine kinase receptor (Homo sapiens, UniProt Q9UM73, L1196M). Description: Inhibition of ALK L1196M mutant (unknown origin).
ALK tyrosine kinase receptor (Homo sapiens, UniProt Q9UM73, L1196M), sequence (Q9UM73 19-1620 L1196M limits assumed): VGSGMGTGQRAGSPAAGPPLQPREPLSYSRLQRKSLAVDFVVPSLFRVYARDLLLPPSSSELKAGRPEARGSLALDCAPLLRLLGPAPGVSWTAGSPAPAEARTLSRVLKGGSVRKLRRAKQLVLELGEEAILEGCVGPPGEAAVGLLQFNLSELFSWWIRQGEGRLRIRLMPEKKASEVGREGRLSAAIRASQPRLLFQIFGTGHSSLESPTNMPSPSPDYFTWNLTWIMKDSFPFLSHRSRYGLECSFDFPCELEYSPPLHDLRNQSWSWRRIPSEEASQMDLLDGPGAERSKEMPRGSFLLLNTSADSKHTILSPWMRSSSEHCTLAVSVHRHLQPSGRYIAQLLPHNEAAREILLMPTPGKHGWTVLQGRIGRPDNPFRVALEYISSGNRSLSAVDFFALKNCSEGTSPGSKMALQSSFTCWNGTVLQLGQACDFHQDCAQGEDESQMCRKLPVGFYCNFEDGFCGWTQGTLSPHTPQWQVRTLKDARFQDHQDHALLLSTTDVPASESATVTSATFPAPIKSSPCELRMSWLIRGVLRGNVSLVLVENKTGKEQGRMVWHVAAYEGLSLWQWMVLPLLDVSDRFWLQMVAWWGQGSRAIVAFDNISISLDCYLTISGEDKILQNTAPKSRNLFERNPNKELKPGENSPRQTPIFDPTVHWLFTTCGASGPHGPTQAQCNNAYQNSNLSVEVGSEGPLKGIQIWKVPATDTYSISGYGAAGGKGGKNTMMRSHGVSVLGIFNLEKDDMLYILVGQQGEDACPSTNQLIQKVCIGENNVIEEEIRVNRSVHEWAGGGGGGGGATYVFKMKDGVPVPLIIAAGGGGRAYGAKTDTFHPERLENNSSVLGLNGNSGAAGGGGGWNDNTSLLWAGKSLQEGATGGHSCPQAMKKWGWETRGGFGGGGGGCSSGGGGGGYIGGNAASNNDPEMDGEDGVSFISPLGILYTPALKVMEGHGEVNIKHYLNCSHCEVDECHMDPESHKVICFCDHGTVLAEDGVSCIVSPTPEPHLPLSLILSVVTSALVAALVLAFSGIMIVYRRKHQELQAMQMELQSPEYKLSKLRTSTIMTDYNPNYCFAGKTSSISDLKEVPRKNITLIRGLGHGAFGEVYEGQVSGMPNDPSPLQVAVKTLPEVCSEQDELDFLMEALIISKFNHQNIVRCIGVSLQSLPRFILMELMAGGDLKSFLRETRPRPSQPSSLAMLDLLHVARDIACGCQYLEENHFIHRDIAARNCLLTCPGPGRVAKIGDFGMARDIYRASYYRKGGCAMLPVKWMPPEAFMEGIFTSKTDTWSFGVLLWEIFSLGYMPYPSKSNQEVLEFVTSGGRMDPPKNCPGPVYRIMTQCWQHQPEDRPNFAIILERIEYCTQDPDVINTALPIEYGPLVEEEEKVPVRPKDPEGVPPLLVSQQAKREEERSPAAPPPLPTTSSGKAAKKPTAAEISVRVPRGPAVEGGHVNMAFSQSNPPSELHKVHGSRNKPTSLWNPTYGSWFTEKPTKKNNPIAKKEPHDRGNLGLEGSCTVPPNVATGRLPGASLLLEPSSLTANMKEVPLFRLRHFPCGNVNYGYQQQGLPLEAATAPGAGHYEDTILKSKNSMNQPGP
In data set [5] the target is ALK tyrosine kinase receptor (Homo sapiens, UniProt Q9UM73, F1174L). Description: Inhibition of ALK F1174L mutant (unknown origin).
ALK tyrosine kinase receptor (Homo sapiens, UniProt Q9UM73, F1174L), sequence (Q9UM73 19-1620 F1174L limits assumed): as the sequence (Q9UM73 19-1620 L1196M limits assumed) above, with F1156L, M1178L counted along it
A short description of data set [6]: Toxicity in SCID Beige nude mouse xenografted with human NCI-H2228 cells harboring EML4-fused ALK variant assessed as change in body weight at 30 mg/kg, po administered once daily for 14 days and measured twice per week for 14 days during compound dosing. The following applies: in vivo, 336 h. The data set is classed as organism-based. For orientation: Xenograft models place foreign cells or tissue in a host animal.

Data set [7] concerns NCI-H2228. The data set can be described thus: Antitumor activity against human NCI-H2228 cells harboring EML4-fused ALK variant xenografted in SCID Beige nude mouse assessed as tumor growth inhibition at 10 mg/kg, po administered once daily for 14 days measured twice per week for 21 days during compound dosing relative to control. The data set is classed as functional. The following applies: read-out: TGI.

For data set [8], the system named is NCI-H2228. Description: Antitumor activity against human NCI-H2228 cells harboring EML4-fused ALK variant xenografted in SCID Beige nude mouse assessed as tumor growth inhibition at 30 mg/kg, po administered once daily for 14 days measured twice per week for 21 days during compound dosing relative to control. The following applies: read-out: TGI. The data set is classed as functional.

Data set [9] in a line: Oral bioavailability in SCID Beige nude mouse xenografted with human NCI-H2228 cells harboring EML4-fused ALK variant at 3 to 30 mg/kg administered once daily for 14 days relative to control. The data set is classed as ADME, organism-based. The following applies: in vivo.
Data set [10] in a line: Tmax in SCID Beige nude mouse xenografted with human NCI-H2228 cells harboring EML4-fused ALK variant at 3 to 30 mg/kg, po administered once daily for 14 days. It counts as ADME, organism-based. The following applies: in vivo.
Data set [11] is described as follows: Cmax in SCID Beige nude mouse xenografted with human NCI-H2228 cells harboring EML4-fused ALK variant at 3 to 30 mg/kg, po administered once daily for 14 days. It counts as ADME, organism-based. The following applies: in vivo.
Data set [12] can be described thus: AUC (0 to t) in SCID Beige nude mouse xenografted with human NCI-H2228 cells harboring EML4-fused ALK variant at 3 to 30 mg/kg, po administered once daily for 14 days. The data set is classed as ADME, organism-based. The following applies: in vivo, 336 h.
Data set [13] has as its system NCI-H2228. Description: Antitumor activity against human NCI-H2228 cells harboring EML4-fused ALK variant xenografted in po dosed SCID Beige nude mouse assessed as tumor growth inhibition administered once daily for 14 days measured twice a week for 21 days during compound dosing. The data set is classed as functional, organism-based. The following applies: tested as the 2H-labelled form.

Take `[2H]c1ccc(Nc2nc(Nc3cc(C)c(C4CCNCC4)cc3OC(C)C)ncc2Cl)c(S(=O)(=O)C(C)C)c1`: the IC50 in data set [1] came to 97 nM; in data set [2], 28.5 nM.
Regarding `[2H]C([2H])([2H])Oc1cc(C2CCNCC2)c(C)cc1Nc1ncc(Cl)c(Nc2ccccc2S(=O)(=O)C(C)C)n1`, the IC50 in data set [1] was 41.3 nM; in data set [2], 4 nM; in data set [3], 71 nM; in [4], 18.7 nM; in [5], 36.8 nM. Further, the Activity result in data set [6] is “Non-Toxic”. Besides, in data set [7], the inhibition in vivo at 10 mg/kg was determined as 53%. For the same compound, in data set [8], the inhibition in vivo at 30 mg/kg turned out to be 77%. In data set [9], this compound came in with a bioavailability of 60%. The Tmax in data set [10] was in the range of 6 to 8 h. In data set [11], this compound showed a Cmax of 508 ng/mL. In data set [12], this compound registered an AUCt of 6980 ng·h/mL.
Consider `Cc1cc(Nc2ncc(Cl)c(Nc3ccccc3S(=O)(=O)C(C)C)n2)c(OC(C)C)cc1C1CCNCC1` [CERITINIB], for which the IC50 worked out at 97 nM in data set [1] and 27.2 nM in data set [2]. In addition, in data set [7], the inhibition in vivo at 10 mg/kg was found to be 26%.
Consider `[2H]C([2H])([2H])C([2H])([2H])Oc1cc(C2CCNCC2)c(C)cc1Nc1ncc(Cl)c(Nc2ccccc2S(=O)(=O)C(C)C)n1`, for which the IC50 in data set [1] turned out to be 45.5 nM; in [2], 6 nM; in [3], 106 nM; in data set [4], 37 nM; in [5], 51.6 nM.
As to `COc1cc(C2CCNCC2)c(C)cc1Nc1ncc(Cl)c(Nc2ccccc2S(=O)(=O)C(C)C)n1`, the TGI result in data set [13] is “Dose-dependent effect”.
As to `[2H]c1c(C)c(C2CCNCC2)cc(OC(C)C)c1Nc1ncc(Cl)c(Nc2ccccc2S(=O)(=O)C(C)C)n1`, the IC50 in data set [1] stood at 98.5 nM; in data set [2], 24.7 nM.
For `[2H]C([2H])([2H])C([2H])(Oc1cc(C2CCNCC2)c(C)cc1Nc1ncc(Cl)c(Nc2ccccc2S(=O)(=O)C(C)C)n1)C([2H])([2H])[2H]`, in that order: 111 nM and 28.4 nM.
